According to PMC9552147 (Nature Communications, 2022):
“And” between values parts separate entries of the source, which are not always exact repeats. Equal entries are not always repeated.

System: M. tuberculosis resistant mutant (lysS S491 insertion)
Type: cell-based, Mycobacterium tuberculosis

SMILES | Mutant (S491)MIC | Mutant (S491)MIC, Ave | fold resistance of the resistant mutant strain compared to wild-type H37Rv (MIC)
Nc1cc2c(c(F)n1)C(=O)N(C1CCCCC1)C2 [Compound 2] | 0.11 µM and 0.095 µM | 0.10 µM | –
NNC(=O)c1ccncc1 [isoniazid] | – | – | equivalent sensitivity
